Results reported in patent US20250206779A1, “ANGIOTENSIN-(1-9) ANALOGUE BASED ON D AMINO ACIDS, PHARMACEUTICAL COMPOSITIONS AND USES THEREOF” (UNIVERSIDAD DE CHILE, priority 2021, published 2025).
“Also recorded” adds a separate entry of the source. Where a SMILES comes first, the peptide text is derived from it. [ ]: non-standard residue; d: D form.

What was measured:
[1] = system: neonatal rat ventricular myocytes (NRVM); assay: Cardiomyocyte death by simulated ischemia/reperfusion (LDH release, procaspase 3 cleavage); assay type: cell-based
Description: Neonatal rat ventricular myocytes (NRVM) were isolated from one- to three-day-old Sprague Dawley rats. Cells were pre-plated to discard non-myocyte cells and the myocyte-enriched fraction was plated on gelatin-precoated 35 mm dishes and grown in DMEM/M199 (4:1) medium with 10% (w/v) fetal bovine serum (FBS) and […] bromodeoxyuridine for 24 h before the experiments. Ischemia was induced by incubating the cardiomyocytes in ischemia-mimicking solution (ischemic medium) containing HEPES 5 mM, 2-deoxy-D-glucose 10 mM, NaCl 139 mM, KCl 12 mM, MgCl2 0.5 mM, CaCl2 1.3 mM and lactic acid 20 mM, pH 6.2, under O2<1%, 5% CO2 and 95% nitrogen at 37° C. for 8 h. Subsequently for simulated reperfusion, ischemia-mimicking solution was replaced by DMEM/M199 (4:1) containing 10% (w/v) FBS and NRVM were incubated for 16 h in 95% air and 5% CO2. Parallel NRVM were assigned to a control group which was exposed to normoxic conditions in a control medium containing (in mM) 5 HEPES 5 mM, D-glucose 23 mM, NaCl 139 mM, KCl 4.7 mM, MgCl2 0.5 mM, CaCl2 1.3 mM, pH 7.4 under 95% air and 5% CO2 for 8 h. Then, control medium was replaced with DMEM/M199 (4:1) containing 10% (w/v) FBS under 95% air and 5% CO2 for 16 h.
For the evaluation of necrosis, the activity of lactate dehydrogenase (LDH) was measured spectrophotometrically at 490 nm in samples of the culture medium after normoxia (control) and sl/R both at 8 h and 16 h, using the kit CytoTox 96® Non-Radioactive Cytotoxicity Assay, Promega (Corp., Madison, WI, USA), according to the manufacturer's instructions. Apoptosis was evaluated by measuring procaspase 3 cleavage to caspase 3 by western blotting.

[2] = system: spontaneously hypertensive rats (SHR); assay: Cardiac-resident macrophage phenotype M1/M2 in SHR, flow cytometry; assay type: in vivo, rat; details: SHR, 1,200 ng/kg/min, 14 days
Description: Experimental animal model. All procedures were performed in accordance with the Guide for the Care and Use of Laboratory Animals published by the U.S. National Institutes of Health (NIH Publication 85 23, 1985) and approved by our Institutional Bioethics Committee. The animals were housed under the continuous professional monitoring of the Medical Veterinary staff in the animal facility of the Pontificia Universidad Católica de Chile, under the following conditions: 12-h light-dark cycle; 21° C. ambient temperature; 50% humidity; adequate ventilation; noise-free environment; and food and water ad libitum. Male spontaneously hypertensive rats (SHR, age 12 weeks) and normotensive Wistar Kyoto rats (WKY, 12 weeks age) were used. […] Systolic blood pressure (SBP), diastolic blood pressure (DBP) and body weight (BW) were measured at the end of the treatment period and the animals were then sacrificed. […]

CC[C@@H](C)[C@@H](NC(=O)[C@@H](Cc1c[nH]cn1)NC(=O)[C@H]1CCCN1C(=O)[C@@H](Cc1ccccc1)NC(=O)[C@H](N)Cc1c[nH]cn1)C(=O)N[C@H](Cc1ccc(O)cc1)C(=O)N[C@@H](C(=O)N[C@H](CCCNC(=N)N)C(=O)N[C@H](CC(=O)O)C(=O)O)C(C)C [retro-inverse angiotensin-(1-9), NH2-^DH^DF^DP^DH^DI^DY^DV^DR^DD-COOH] (H-[dH][dF][dP][dH][dI][dY][dV][dR][dD]-OH)
cardiomyocyte apoptosis induced by ischemia reperfusion (procaspase 3 cleavage) ([1]; 10 μM peptide, western blotting): inhibited
cardiomyocyte necrosis induced by ischemia reperfusion (LDH release) ([1]; 1 and 10 μM peptide): Significative necrosis inhibition
cardiomyocyte necrosis induced by ischemia reperfusion (LDH release) ([1]; simulated ischemia 8 h / reperfusion 16 h): inhibited in a dose response manner
macrophages M1 in cardiac tissues [2]: reversed the increase; also recorded: more marked decrease in macrophages M1 than angiotensin-(1-9)
macrophages M2 in cardiac tissues [2]: increases the macrophages M2
